According to article PMC4417197, “Engineering Saccharomyces pastorianus for the co-utilisation of xylose and cellulose from biomass” (Microbial Cell Factories, 2015):

Tests used:
[1] = target: T1, XDH (xylitol dehydrogenase, xdh1) (Trichoderma reesei, UniProt Q876R2); experiment: NAD+ reduction at […] nm in cell-free extract of expressing yeast; type: biochemical; details: 0.15 M xylitol, 0.4 mM NAD+, 25 mM potassium phosphate pH 7.0
T1 construct: cell-free extract
T1 sequence (Q876R2 1-363): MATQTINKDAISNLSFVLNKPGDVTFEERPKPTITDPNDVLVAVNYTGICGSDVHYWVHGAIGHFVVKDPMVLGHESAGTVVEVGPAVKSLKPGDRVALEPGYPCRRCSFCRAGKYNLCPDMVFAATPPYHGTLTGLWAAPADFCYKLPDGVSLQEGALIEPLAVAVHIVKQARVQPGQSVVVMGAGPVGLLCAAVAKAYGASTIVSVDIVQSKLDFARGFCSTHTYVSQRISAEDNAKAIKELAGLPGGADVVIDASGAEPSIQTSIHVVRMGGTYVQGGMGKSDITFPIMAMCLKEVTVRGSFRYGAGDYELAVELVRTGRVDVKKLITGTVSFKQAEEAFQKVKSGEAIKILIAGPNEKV

[2] = target: T2, XR (xylose reductase, xyl1) (Trichoderma reesei, UniProt Q876L8); experiment: NADPH oxidation at […] nm in cell-free extract of expressing yeast; type: biochemical; details: 50 mM xylose, 0.34 mM NADPH, 25 mM potassium phosphate pH 7.0, 30 C
T2 construct: cell-free extract
T2 sequence (Q876L8 1-324): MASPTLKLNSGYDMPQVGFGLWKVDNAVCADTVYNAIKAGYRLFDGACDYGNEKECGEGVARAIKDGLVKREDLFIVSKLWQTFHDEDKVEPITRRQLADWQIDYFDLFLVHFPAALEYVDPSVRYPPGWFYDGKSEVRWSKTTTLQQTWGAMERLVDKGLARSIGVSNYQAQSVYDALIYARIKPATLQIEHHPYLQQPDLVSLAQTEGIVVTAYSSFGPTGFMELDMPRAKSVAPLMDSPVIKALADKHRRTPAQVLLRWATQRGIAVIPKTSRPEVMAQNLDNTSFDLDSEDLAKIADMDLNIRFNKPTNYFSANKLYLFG

SMILES: NC(=O)c1ccc[n+]([C@@H]2O[C@H](COP(=O)(O)OP(=O)(O)OC[C@H]3O[C@@H](n4cnc5c(N)ncnc54)[C@H](O)[C@@H]3O)[C@@H](O)[C@H]2O)c1 [NAD^+]
- NAD+ reduction at 340 nm in cell-free extract of expressing yeast [1]: measuring the reduction of nicotinamide adenine dinucleotide (NAD^+) to NADH

SMILES: NC(=O)C1=CN([C@@H]2O[C@H](COP(=O)(O)OP(=O)(O)OC[C@H]3O[C@@H](n4cnc5c(N)ncnc54)[C@H](OP(=O)(O)O)[C@@H]3O)[C@@H](O)[C@H]2O)C=CC1 [NADPH]
- NADPH oxidation at 340 nm in cell-free extract of expressing yeast [2]: measuring the oxidation of the reduced form of nicotinamide adenine dinucleotide phosphate (NADPH)
